Patent US6355799B1, “Substituted benzene compounds, process for their preparation, and herbicidal and defoliant compositions containing them” (ISK Americas Incorporated, priority 1997, dated 2002)

How the values were obtained:
Type in all cases: in vivo
[1] = system: redroot pigweed (Amaranthus retroflexus, AMARE); test: Pre-emerge test, greenhouse herbicide activity screening; conditions: rating scale 0-100, 14 days after application
Procedure, shortened: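 Compounds in acetone were track-sprayed at 15-1000 g ai/ha (187 l/ha) on sandy loam pots: pre-emerge one day after seeding, post-emerge at 2-3 leaf stage with 0.25% v/v non-ionic surfactant. Phytotoxicity was rated 14 days later on a 0 (no damage) to 100 (complete death) scale.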

[2] = system: barnyardgrass (Echinochloa crus-galli, ECHCG); test: as above; conditions: rating scale 0-100, 14 days after application
Procedure, shortened: (§1)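 Rating: 0–100 visual injury, 14 DAA. Application: acetone, 187 l/ha, 15–1000 g ai/ha, flat-fan track sprayer with nozzle 40–45 cm above soil or canopy. Post-emerge runs used 0.25% v/v surfactant on 2–3 leaf plants.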

[3] = system: green foxtail (Setaria viridis, SETVI); test: as above; conditions: rating scale 0-100, 14 days after application
Procedure, shortened: as §1

[4] = system: ivyleaf morningglory (Ipomoea hederacea, IPOHE); test: as above; conditions: rating scale 0-100, 14 days after application
Procedure, shortened: as §1

[5] = system: johnsongrass (Sorghum halepense, SORHA); test: as above; conditions: rating scale 0-100, 14 days after application
Procedure, shortened: as §1

[6] = system: lambsquarters (Chenopodium album, CHEAL); test: as above; conditions: rating scale 0-100, 14 days after application
Procedure, shortened: as §1

[7] = system: large crabgrass (Digitaria sanguinalis, DIGSA); test: as above; conditions: rating scale 0-100, 14 days after application
Procedure, shortened: as §1

[8] = system: sicklepod (Cassia obtusifolia, CASOB); test: as above; conditions: rating scale 0-100, 14 days after application
Procedure, shortened: as §1

[9] = system: velvetleaf (Abutilon theophrasti, ABUTH); test: as above; conditions: rating scale 0-100, 14 days after application
Procedure, shortened: as §1

[10] = system: field corn (Zea mays L., var. Dekalb 535, CORN); test: Pre-emerge test, crop safety; conditions: rating scale 0-100, 14 days after application
Procedure, shortened: (§2)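 Visual ratings on a 0-100 scale (0 no damage, 100 all plants dead) were taken at 14 days after treatment. Rates of 15-1000 g ai/ha in acetone, 187 l/ha, were sprayed onto soil one day after planting (pre-emerge) or onto 2-3 leaf plants with 0.25% v/v surfactant (post-emerge).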

[11] = system: upland rice (Oryza sp., var. Tebonnet, RICE); test: Pre-emerge test, crop safety; conditions: rating scale 0-100, 14 days after application
Procedure, shortened: as §2

[12] = system: barnyardgrass (Echinochloa crus-galli, ECHCG); test: Post-emerge test, greenhouse herbicide activity screening; conditions: rating scale 0-100 (0 no damage, 100 complete death), 14 days after application
Procedure, shortened: (§3)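 Compounds in acetone were track-sprayed at 187 l/ha, 15–1000 g ai/ha, onto sandy loam pots. Pre-emerge seeds were sown one day before spraying, with surface watering afterwards. Post-emerge plants were at the 2–3 leaf stage and sprayed with 0.25% v/v non-ionic surfactant. Injury was rated 0–100 at 14 days.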

[13] = system: common ragweed (Ambrosia artemisizfolia L., AMBEL); test: as above; conditions: rating scale 0-100 (0 no damage, 100 complete death), 14 days after application
Procedure, shortened: as §3

[14] = system: green foxtail (Setaria viridis, SETVI); test: as above; conditions: rating scale 0-100 (0 no damage, 100 complete death), 14 days after application
Procedure, shortened: as §3

[15] = system: ivyleaf morningglory (Ipomoea hederacea, IPOHE); test: as above; conditions: rating scale 0-100 (0 no damage, 100 complete death), 14 days after application
Procedure, shortened: as §3

[16] = system: johnsongrass (Sorghum halepense, SORHA); test: as above; conditions: rating scale 0-100 (0 no damage, 100 complete death), 14 days after application
Procedure, shortened: as §3

[17] = system: lambsquarters (Chenopodium album, CHEAL); test: as above; conditions: rating scale 0-100 (0 no damage, 100 complete death), 14 days after application
Procedure, shortened: as §3

[18] = system: large crabgrass (Digitaria sanguinalis, DIGSA); test: as above; conditions: rating scale 0-100 (0 no damage, 100 complete death), 14 days after application
Procedure, shortened: as §3

[19] = system: redroot pigweed (Amaranthus retroflexus, AMARE); test: as above; conditions: rating scale 0-100 (0 no damage, 100 complete death), 14 days after application
Procedure, shortened: as §3

[20] = system: sicklepod (Cassia obtusifolia, CASOB); test: as above; conditions: rating scale 0-100 (0 no damage, 100 complete death), 14 days after application
Procedure, shortened: as §3

[21] = system: velvetleaf (Abutilon theophrasti, ABUTH); test: as above; conditions: rating scale 0-100 (0 no damage, 100 complete death), 14 days after application
Procedure, shortened: as §3

[22] = system: field corn (Zea mays L., var. Dekalb 535, CORN); test: Post-emerge test, crop safety; conditions: rating scale 0-100 (0 no damage, 100 complete death), 14 days after application
Procedure, shortened: (§4)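 Plants grown in 10 cm pots of sandy loam mix received acetone-dissolved compounds through a moving flat-fan nozzle. Doses ranged from 15 to 1000 g ai/ha. Pre-emerge pots were seeded one day earlier, post-emerge pots 8–21 days earlier. Fourteen days on, each pot was graded 0–100 for damage.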

[23] = system: upland rice (Oryza sp., var. Tebonnet, RICE); test: Post-emerge test, crop safety; conditions: rating scale 0-100 (0 no damage, 100 complete death), 14 days after application
Procedure, shortened: as §4

Structure (SMILES): COc1c(Cl)cc(F)c(-n2c(=O)cc(C(F)(F)F)n(C)c2=O)c1CC(Cl)C(=O)OCC(C)C (single isomer, unassigned) [14-14]
- Pre-emerge herbicidal activity, phytotoxicity rating AMARE ([1]; 63 g ai/ha): 100
- Pre-emerge herbicidal activity, phytotoxicity rating AMARE ([1]; 250 g ai/ha): 100
- Pre-emerge herbicidal activity, phytotoxicity rating ECHCG ([2]; 63 g ai/ha): 0
- Pre-emerge herbicidal activity, phytotoxicity rating ECHCG ([2]; 250 g ai/ha): 10
- Pre-emerge herbicidal activity, phytotoxicity rating SETVI ([3]; 63 g ai/ha): 0
- Pre-emerge herbicidal activity, phytotoxicity rating SETVI ([3]; 250 g ai/ha): 50
- Pre-emerge herbicidal activity, phytotoxicity rating IPOHE ([4]; 63 g ai/ha): 0
- Pre-emerge herbicidal activity, phytotoxicity rating IPOHE ([4]; 250 g ai/ha): 20
- Pre-emerge herbicidal activity, phytotoxicity rating SORHA ([5]; 63 g ai/ha): 0
- Pre-emerge herbicidal activity, phytotoxicity rating SORHA ([5]; 250 g ai/ha): 0
- Pre-emerge herbicidal activity, phytotoxicity rating CHEAL ([6]; 63 g ai/ha): 60
- Pre-emerge herbicidal activity, phytotoxicity rating CHEAL ([6]; 250 g ai/ha): 100
- Pre-emerge herbicidal activity, phytotoxicity rating DIGSA ([7]; 63 g ai/ha): 50
- Pre-emerge herbicidal activity, phytotoxicity rating DIGSA ([7]; 250 g ai/ha): 90
- Pre-emerge herbicidal activity, phytotoxicity rating CASOB ([8]; 63 g ai/ha): 0
- Pre-emerge herbicidal activity, phytotoxicity rating CASOB ([8]; 250 g ai/ha): 0
- Pre-emerge herbicidal activity, phytotoxicity rating ABUTH ([9]; 63 g ai/ha): 0
- Pre-emerge herbicidal activity, phytotoxicity rating ABUTH ([9]; 250 g ai/ha): 20
- Pre-emerge phytotoxicity rating, crop damage CORN ([10]; 63 g ai/ha): 0
- Pre-emerge phytotoxicity rating, crop damage CORN ([10]; 250 g ai/ha): 0
- Pre-emerge phytotoxicity rating, crop damage RICE ([11]; 63 g ai/ha): 0
- Pre-emerge phytotoxicity rating, crop damage RICE ([11]; 250 g ai/ha): 20
- Post-emerge Herbicidal Activity, phytotoxicity rating ECHCG ([12]; Rate 63 g ai/ha): 100
- Post-emerge Herbicidal Activity, phytotoxicity rating ECHCG ([12]; Rate 250 g ai/ha): 100
- Post-emerge Herbicidal Activity, phytotoxicity rating AMBEL ([13]; Rate 63 g ai/ha): 70
- Post-emerge Herbicidal Activity, phytotoxicity rating AMBEL ([13]; Rate 250 g ai/ha): 70
- Post-emerge Herbicidal Activity, phytotoxicity rating SETVI ([14]; Rate 63 g ai/ha): 50
- Post-emerge Herbicidal Activity, phytotoxicity rating SETVI ([14]; Rate 250 g ai/ha): 70
- Post-emerge Herbicidal Activity, phytotoxicity rating IPOHE ([15]; Rate 63 g ai/ha): 30
- Post-emerge Herbicidal Activity, phytotoxicity rating IPOHE ([15]; Rate 250 g ai/ha): 50
- Post-emerge Herbicidal Activity, phytotoxicity rating SORHA ([16]; Rate 63 g ai/ha): 0
- Post-emerge Herbicidal Activity, phytotoxicity rating SORHA ([16]; Rate 250 g ai/ha): 20
- Post-emerge Herbicidal Activity, phytotoxicity rating CHEAL ([17]; Rate 63 g ai/ha): 50
- Post-emerge Herbicidal Activity, phytotoxicity rating CHEAL ([17]; Rate 250 g ai/ha): 90
- Post-emerge Herbicidal Activity, phytotoxicity rating DIGSA ([18]; Rate 63 g ai/ha): 90
- Post-emerge Herbicidal Activity, phytotoxicity rating DIGSA ([18]; Rate 250 g ai/ha): 100
- Post-emerge Herbicidal Activity, phytotoxicity rating AMARE ([19]; Rate 63 g ai/ha): 50
- Post-emerge Herbicidal Activity, phytotoxicity rating AMARE ([19]; Rate 250 g ai/ha): 100
- Post-emerge Herbicidal Activity, phytotoxicity rating CASOB ([20]; Rate 63 g ai/ha): 0
- Post-emerge Herbicidal Activity, phytotoxicity rating CASOB ([20]; Rate 250 g ai/ha): 60
- Post-emerge Herbicidal Activity, phytotoxicity rating ABUTH ([21]; Rate 63 g ai/ha): 50
- Post-emerge Herbicidal Activity, phytotoxicity rating ABUTH ([21]; Rate 250 g ai/ha): 100
- Post-emerge phytotoxicity rating CORN (crop damage) ([22]; Rate 63 g ai/ha): 10
- Post-emerge phytotoxicity rating CORN (crop damage) ([22]; Rate 250 g ai/ha): 50
- Post-emerge phytotoxicity rating RICE (crop damage) ([23]; Rate 63 g ai/ha): 0
- Post-emerge phytotoxicity rating RICE (crop damage) ([23]; Rate 250 g ai/ha): 30
